From paper PMC8113231 (Nature Communications, 2021)
Where a SMILES comes first, the peptide text is derived from it. Bridges are numbered along the chain shown (N, C = ends). [ ]: non-standard residue; d: D form. NMeF = CN[C@@H](Cc1ccccc1)C(=O)O; NMeS = CN[C@@H](CO)C(=O)O; Sar = CNCC(=O)O

How the values were obtained:
[1] = system: A/duck/Hokkaido/Vac-3/07 (H5N1/Vac-3); test: microbe, parasite or virus in culture; assay type: cell-based, influenza A virus
[2] = system: HA from A/California/07/2009 (H1N1); assay type: cell-based, influenza A virus
[3] = system: A/whooper swan/Hokkaido/1/08 (H5N1); parameters: species or system BALB/c mice; settings: mouse, in vivo, 1.9 mg/kg/day
[4] = system: HA on H1N1 virions; assay type: binding, influenza A virus
[5] = system: HA on H2N2 virions; assay type: binding, influenza A virus
[6] = system: H5N1/Vac-3; assay type: cell-based, influenza A virus
[7] = system: H1N1/Tokyo2619; assay type: cell-based, influenza A virus
[8] = system: chicken red blood cells
[9] = system: A/Vietnam/UT3040/2004 (H5N1/Vietnam); parameters: species or system cynomolgus monkeys; settings: cynomolgus monkey, in vivo
[10] = in vitro; settings: human, serum

**Q.** Which “Plaque formation of H5N1/Vac-3 (screen of 28 candidates)” value [1] does the source give for `CC(C)[C@@H]1NC(=O)[C@H]([C@@H](C)O)NC(=O)[C@H](Cc2ccc(O)cc2)NC(=O)[C@H](Cc2c[nH]cn2)NC(=O)[C@H](CO)N(C)C(=O)[C@H](CO)NC(=O)[C@H](Cc2ccccc2)N(C)C(=O)[C@H](Cc2ccccc2)N(C)C(=O)[C@H](CC(=O)O)NC(=O)CN(C)C(=O)[C@H]([C@@H](C)O)NC(=O)[C@H](Cc2c[nH]c3ccccc23)NC(=O)CSC[C@@H](C(N)=O)NC(=O)[C@H](CCCNC(=N)N)NC(=O)[C@@H]2CCCN2C1=O` [iHA-100] ({CH2CO}-WT[Sar]D[NMeF][NMeF]S[NMeS]HYTVPRC-NH2; thioether N-15) here?
**A.** inhibited plaque formation

**Q.** And the “Size of viral plaques” value [1]?
**A.** reduced the size of viral plaques

**Q.** And the “Polykaryon formation mediated by H1 HA” value [2]?
**A.** significantly inhibited

**Q.** What about the “Progression of pneumonia (histopathology)” value [3] of the same compound?
**A.** prevented the progression of pneumonia

**Q.** What about the Survival [3] of the same compound?
**A.** 40%

**Q.** And the “Survival rate, administration started 0 days after infection” value [3]?
**A.** comparable with the survival rate in the zanamivir-treated group

**Q.** What about the “Viral replication in the lungs” value [3] of the same compound?
**A.** significantly suppressed

**Q.** What about the “Virus-related increase in lung weight” value [3] of the same compound?
**A.** significantly suppressed

**Q.** What about the “Binding to HA on H1N1 virions (pull-down)” value [4] of the same compound?
**A.** bound to HA

**Q.** And the “Binding to HA on H2N2 virions (pull-down)” value [5]?
**A.** bound to HA

**Q.** What about the “H5N1/Vac-3 virus-mediated RBC membrane fusion” value [6] of the same compound?
**A.** inhibited by iHA-100 in a dose-dependent manner

**Q.** What about the “H1N1/Tokyo2619 virus-mediated RBC membrane fusion” value [7] of the same compound?
**A.** inhibited by iHA-100 in a dose-dependent manner

**Q.** And the Inhibition of hemagglutination [8]?
**A.** could not

**Q.** What about the “IFN-γ in the lungs” value [9] of the same compound?
**A.** significantly reduced

**Q.** What about the “IL-6 in the lungs” value [9] of the same compound?
**A.** significantly reduced

**Q.** What about the “IL-15 in the lungs” value [9] of the same compound?
**A.** decreased

**Q.** And the “Virus titers in autopsy lung samples at 7 dpi” value [9]?
**A.** low virus titers in the lungs of two monkeys

**Q.** And the Body temperature ([9]; 3 mg/kg/day)?
**A.** returned to a normal range

**Q.** What about the Bodyweight loss ([9]; 3 mg/kg/day) of the same compound?
**A.** relatively attenuated

**Q.** What about the Lung weights ([9]; 3 mg/kg/day) of the same compound?
**A.** relatively lower

**Q.** And the “Virus in nasal, oral and bronchial swabs” value ([9]; 3 mg/kg/day)?
**A.** disappeared at 3–6 dpi

**Q.** What about the “Virus shedding after treatment (3–7 dpi), area under the curve” value ([9]; po) of the same compound?
**A.** significantly lower virus shedding

**Q.** And the half-life [10]?
**A.** ~3.85 h
